Among the data in PubChem BioAssay AID670 (University of Pittsburgh Molecular Library Screening Center, 2007) are IC50 values, retold here.

The assay addresses M-phase inducer phosphatase 2 (Homo sapiens) (UniProt P30305). The experiment in a line: Cdc25B phosphatase blockers with beta-mercaptoethanol – biochemical, beta-mercaptoethanol present, catalytic domain, IC50, Cdc25B inhibitor project, late-stage follow-up (AID 670). Particulars: recombinant Cdc25B phosphatase activity.

M-phase inducer phosphatase 2 (Homo sapiens), sequence (P30305 whole entry, looked up, the tested form may be a part): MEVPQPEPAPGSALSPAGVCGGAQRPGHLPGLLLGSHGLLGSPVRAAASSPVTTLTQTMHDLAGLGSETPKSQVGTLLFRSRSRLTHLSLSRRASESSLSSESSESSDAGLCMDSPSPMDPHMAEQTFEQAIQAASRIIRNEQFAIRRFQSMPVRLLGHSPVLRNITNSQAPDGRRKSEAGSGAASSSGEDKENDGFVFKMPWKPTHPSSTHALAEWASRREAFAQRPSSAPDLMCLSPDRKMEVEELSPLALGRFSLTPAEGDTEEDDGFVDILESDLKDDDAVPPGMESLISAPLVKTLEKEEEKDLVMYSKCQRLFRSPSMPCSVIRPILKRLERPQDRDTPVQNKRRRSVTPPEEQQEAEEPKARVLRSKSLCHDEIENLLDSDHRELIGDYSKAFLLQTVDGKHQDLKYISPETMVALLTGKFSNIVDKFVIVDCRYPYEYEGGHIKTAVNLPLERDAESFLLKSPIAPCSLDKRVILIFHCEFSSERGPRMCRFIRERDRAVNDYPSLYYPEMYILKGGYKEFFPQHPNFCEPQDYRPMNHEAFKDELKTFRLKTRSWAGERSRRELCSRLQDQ

As a reminder, the IC50 is the point on the concentration scale where inhibition reaches its midpoint. As to `COc1cccc2c1NC(C(=O)O)C1CC=CC21` (configuration not stated), the IC50 is 8.11 µM.

As to `O=C(OC1CCCCC1)c1ccc2c(c1)C1C=CCC1C(C(=O)O)N2` (configuration not stated), the 50% inhibitory concentration (IC50) is 3.8 µM.
